Measurements reported in ChEMBL document CHEMBL4616632, “Discovery of Cyclic Boronic Acid QPX7728, an Ultrabroad-Spectrum Inhibitor of Serine and Metallo-β-lactamases” (J Med Chem, 2020).
pIC50, pKi: −log10 of the molar value.

Tests used:
[1] = Oral bioavailability in rat at 100 mg/kg administered via gavage by HPLC/MS analysis; type: ADME, organism-based; conditions: in vivo
Enterobacteriaceae [2] = experiment: Inhibition of OXA-48 in carbapenem-resistant Enterobacteriaceae assessed as potentiation of meropenem-induced antibacterial activity by measuring meropenem MIC50 at 8 ug/ml by broth microdilution method (reference value: 32 ug/ml)
Klebsiella pneumoniae [3] = experiment: Inhibition of Klebsiella pneumoniae KP1160 IMP-26 assessed as minimum concentration of compound needed to reduce the MIC of meropenem to 1 ug/ml
[4] = AUC in rat at 300 mg/kg, iv administered as infusion for 0.5 hrs by HPLC/MS analysis; type: ADME, organism-based; conditions: in vivo
Klebsiella pneumoniae [5] = experiment: (§1) Potentiation of meropenem-induced bacteriostatic activity against carbapenem-resistant Klebsiella pneumoniae KP1244 harboring KPC-3, SHV-11, and SHV-12 infected in Swiss-Webster mouse model of neutropenic thigh infection assessed as log change in bacterial count in thigh at 0.5 mg/kg, ip administered at 2 hrs interval for 24 hrs starting from 2 hr post infection and measured post last dose (reference value: 0.62 log10CFU); type: functional
[6] = target: Endothelin-converting enzyme 1 (Homo sapiens, UniProt P42892); experiment: Inhibition of mammalian ECE-1 (unknown origin) using MCA-RPPGFSAFK(DNP)-OH as substrate preincubated for 10 mins followed by substrate addition measured after 30 mins
Chain of Endothelin-converting enzyme 1 (P42892 whole entry): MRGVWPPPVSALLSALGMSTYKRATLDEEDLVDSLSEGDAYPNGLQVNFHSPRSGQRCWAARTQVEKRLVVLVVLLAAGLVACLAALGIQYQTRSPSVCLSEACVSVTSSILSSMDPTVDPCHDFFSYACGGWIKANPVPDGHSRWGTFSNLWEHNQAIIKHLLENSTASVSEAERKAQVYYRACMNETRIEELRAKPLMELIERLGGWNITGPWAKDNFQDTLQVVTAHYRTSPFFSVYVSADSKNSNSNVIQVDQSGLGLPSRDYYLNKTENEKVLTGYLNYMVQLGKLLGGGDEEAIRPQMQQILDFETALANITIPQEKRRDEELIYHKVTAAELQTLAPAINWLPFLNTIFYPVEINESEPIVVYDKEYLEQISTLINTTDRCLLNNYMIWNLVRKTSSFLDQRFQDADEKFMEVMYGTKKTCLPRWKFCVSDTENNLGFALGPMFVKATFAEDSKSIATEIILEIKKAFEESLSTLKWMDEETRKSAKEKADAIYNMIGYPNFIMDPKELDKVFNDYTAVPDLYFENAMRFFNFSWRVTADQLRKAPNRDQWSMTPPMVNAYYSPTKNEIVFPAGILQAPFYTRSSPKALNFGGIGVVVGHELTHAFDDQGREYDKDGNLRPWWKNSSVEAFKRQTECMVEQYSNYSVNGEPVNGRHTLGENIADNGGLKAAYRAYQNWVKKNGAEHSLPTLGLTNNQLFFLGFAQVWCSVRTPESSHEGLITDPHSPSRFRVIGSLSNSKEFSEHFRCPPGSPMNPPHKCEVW

Klebsiella pneumoniae [7] = experiment: Inhibition of Klebsiella pneumoniae KP1054 VIM-1 assessed as minimum concentration of compound required to reduce the MIC of biapenem to 1 ug/ml
Klebsiella pneumoniae [8] = experiment: as §1, with “10” for “0.5”; type: functional
Enterobacteriaceae [9] = experiment: Potentiation of ceftolozane-induced antibacterial activity against carbapenem-resistant Enterobacteriaceae assessed as ceftolozane MIC90 at 8 ug/ml by broth microdilution method (Rvb > 32 ug/ml); type: functional
Chymase = Chymase (Homo sapiens, UniProt P23946); experiment: Inhibition of mammalian chymase (unknown origin) using Suc-AAPF-AMC as substrate preincubated for 10 mins followed by substrate addition measured after 30 mins
Chain of Chymase (P23946 whole entry): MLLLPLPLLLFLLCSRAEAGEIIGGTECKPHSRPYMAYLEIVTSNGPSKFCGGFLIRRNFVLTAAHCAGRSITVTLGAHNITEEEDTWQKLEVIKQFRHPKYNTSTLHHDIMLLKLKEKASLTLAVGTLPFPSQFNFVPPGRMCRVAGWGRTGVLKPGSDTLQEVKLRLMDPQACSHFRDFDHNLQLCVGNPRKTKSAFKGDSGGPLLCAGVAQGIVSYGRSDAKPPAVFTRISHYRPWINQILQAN

Klebsiella pneumoniae [10] = experiment: Potentiation of ceftolozane-induced antibacterial activity against carbapenem-resistant Klebsiella pneumoniae assessed as ceftolozane MIC90 at 8 ug/ml by broth microdilution method (Rvb > 32 ug/ml); type: functional
[11] = Half life in rat at 30 mg/kg, po administered via gavage by HPLC/MS analysis; type: ADME, organism-based; conditions: in vivo
[12] = AUC in rat at 10 mg/kg, iv administered as infusion for 0.5 hrs by HPLC/MS analysis; type: ADME, organism-based; conditions: in vivo
Escherichia coli [13] = experiment: Inhibition of Escherichia coli ECM6619 TEM-10 assessed as minimum concentration of compound needed to reduce the MIC of aztreonam to 4 ug/ml
[14] = Lipophilicity, log D of the compound at pH 7.4; type: physicochemical; conditions: buffer
Enterobacterales = experiment: Potentiation of meropenem-induced antibacterial activity against Enterobacterales assessed as meropenem MIC90 at 8 ug/ml by broth microdilution method (Rvb > 32 ug/ml); type: functional
[15] = target: Angiotensin-converting enzyme 2 (Homo sapiens, UniProt Q9BYF1); experiment: Inhibition of mammalian ACE-2 (unknown origin) using Mca-APK(Dnp) as substrate preincubated for 10 mins followed by substrate addition measured after 30 mins
Chain of Angiotensin-converting enzyme 2 (Q9BYF1 whole entry): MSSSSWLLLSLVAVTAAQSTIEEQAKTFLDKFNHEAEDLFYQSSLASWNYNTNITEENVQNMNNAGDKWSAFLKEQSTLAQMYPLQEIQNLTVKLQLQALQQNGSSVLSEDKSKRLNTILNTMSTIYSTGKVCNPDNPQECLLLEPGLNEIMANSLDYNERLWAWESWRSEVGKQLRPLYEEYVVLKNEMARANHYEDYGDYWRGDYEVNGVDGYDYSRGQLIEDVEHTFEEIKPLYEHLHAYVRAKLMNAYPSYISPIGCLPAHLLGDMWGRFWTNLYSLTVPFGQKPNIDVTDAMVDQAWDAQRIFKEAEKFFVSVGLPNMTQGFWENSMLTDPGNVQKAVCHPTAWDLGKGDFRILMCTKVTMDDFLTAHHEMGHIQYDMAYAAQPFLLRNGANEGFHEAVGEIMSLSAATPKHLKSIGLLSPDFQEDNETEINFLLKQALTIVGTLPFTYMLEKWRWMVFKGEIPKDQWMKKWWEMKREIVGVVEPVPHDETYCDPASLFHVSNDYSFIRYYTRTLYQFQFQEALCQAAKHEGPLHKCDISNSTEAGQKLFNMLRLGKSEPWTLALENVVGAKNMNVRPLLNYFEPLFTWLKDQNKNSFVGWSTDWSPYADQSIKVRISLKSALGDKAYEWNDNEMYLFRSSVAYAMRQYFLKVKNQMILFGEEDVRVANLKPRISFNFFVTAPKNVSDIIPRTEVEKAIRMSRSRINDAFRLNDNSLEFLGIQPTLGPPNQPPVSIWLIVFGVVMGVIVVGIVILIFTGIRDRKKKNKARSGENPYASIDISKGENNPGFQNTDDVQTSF

[16] = Toxicity in rat at 30 to 1000 mg/kg, po administered via gavage; type: organism-based; conditions: in vivo
[17] = Cmax in rat at 1000 mg/kg, po administered via gavage by HPLC/MS analysis; type: ADME, organism-based; design: dose 1000 mg/kg, route oral; conditions: in vivo
[18] = target: Beta-lactamase OXA-23 (Acinetobacter baumannii) (UniProt Q9L4P2); experiment: Inhibition of Acinetobacter baumannii AB1054 OXA-23 assessed as minimum concentration of compound needed to reduce the MIC of meropenem to 8 ug/ml
Chain of Beta-lactamase OXA-23 (Acinetobacter baumannii) (Q9L4P2 whole entry): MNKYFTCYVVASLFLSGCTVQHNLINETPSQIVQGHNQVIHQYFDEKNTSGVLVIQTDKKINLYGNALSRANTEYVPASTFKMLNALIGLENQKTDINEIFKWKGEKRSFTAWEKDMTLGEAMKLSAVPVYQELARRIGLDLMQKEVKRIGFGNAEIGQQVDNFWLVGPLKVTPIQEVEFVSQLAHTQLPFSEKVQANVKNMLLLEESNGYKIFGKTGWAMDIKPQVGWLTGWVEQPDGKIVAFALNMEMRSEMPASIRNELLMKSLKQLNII

[19] = Oral bioavailability in rat at 1000 mg/kg administered via gavage by HPLC/MS analysis; type: ADME, organism-based; conditions: in vivo
Escherichia coli [20] = experiment: Inhibition of Escherichia coli ECM6625 SHV-5 assessed as minimum concentration of compound needed to reduce the MIC of aztreonam to 4 ug/ml
[21] = Half life in rat at 100 mg/kg, po administered via gavage by HPLC/MS analysis; type: ADME, organism-based; conditions: in vivo
Pseudomonas aeruginosa [22] = experiment: Potentiation of meropenem-induced antibacterial activity against Pseudomonas aeruginosa assessed as meropenem MIC50 at 8 ug/ml by broth microdilution method (reference value: 0.5 ug/ml); type: functional
Pseudomonas aeruginosa [23] = experiment: Inhibition of Pseudomonas aeruginosa PAM 2035 AmpC assessed as minimum concentration of compound needed to reduce the MIC of aztreonam to 4 ug/ml
Acinetobacter baumannii = experiment: Potentiation of meropenem-induced antibacterial activity against carbapenem-resistant Acinetobacter baumannii assessed as meropenem MIC90 at 8 ug/ml by broth microdilution method (Rvb > 32 ug/ml); type: functional
[24] = Oral bioavailability in rat at 30 mg/kg administered via gavage by HPLC/MS analysis; type: ADME, organism-based; conditions: in vivo
[25] = Oral bioavailability in rat at 30 mg/kg in fasted state by HPLC/MS analysis; type: ADME, organism-based; conditions: in vivo
Enterobacteriaceae [26] = experiment: Inhibition of OXA-48 in carbapenem-resistant Enterobacteriaceae assessed as potentiation of meropenem-induced antibacterial activity by measuring meropenem MIC90 at 8 ug/ml by broth microdilution method (Rvb > 32 ug/ml)
[27] = AUC in rat at 300 mg/kg, po administered via gavage by HPLC/MS analysis; type: ADME, organism-based; conditions: in vivo
[28] = Clearance in rat at 10 mg/kg, iv administered as infusion for 0.5 hrs by HPLC/MS analysis; type: ADME, organism-based; conditions: in vivo
Interstitial collagenase = Interstitial collagenase (Homo sapiens, UniProt P03956); experiment: Inhibition of mammalian MMP-1 (unknown origin) using McaPLGLDpaAR-NH2 as substrate preincubated for 10 mins followed by substrate addition measured after 30 mins
Chain of Interstitial collagenase (P03956 whole entry): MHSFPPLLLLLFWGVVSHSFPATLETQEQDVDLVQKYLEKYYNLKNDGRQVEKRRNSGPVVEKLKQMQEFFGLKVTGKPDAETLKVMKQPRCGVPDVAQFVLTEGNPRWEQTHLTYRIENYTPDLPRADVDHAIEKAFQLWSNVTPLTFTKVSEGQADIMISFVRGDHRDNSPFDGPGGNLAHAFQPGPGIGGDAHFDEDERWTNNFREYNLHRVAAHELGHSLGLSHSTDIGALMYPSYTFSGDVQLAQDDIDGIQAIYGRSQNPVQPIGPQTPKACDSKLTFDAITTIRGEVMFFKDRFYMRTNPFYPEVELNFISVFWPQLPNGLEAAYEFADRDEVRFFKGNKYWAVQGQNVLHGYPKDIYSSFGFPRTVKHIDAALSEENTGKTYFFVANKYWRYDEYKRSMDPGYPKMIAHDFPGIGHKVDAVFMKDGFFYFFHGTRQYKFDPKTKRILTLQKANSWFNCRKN

[29] = Protein binding in human plasma; type: ADME, cell-free; conditions: read-out: PPB (converted)
Klebsiella pneumoniae [30] = experiment: as §1, with “50” for “0.5”; type: functional
[31] = Toxicity in rat assessed as clinical changes at 30 to 300 mg/kg, iv administered daily via infusion for 7 days; type: organism-based; conditions: in vivo, 168 h
[32] = target: Class A carbapenemase KPC-2 (Escherichia coli, UniProt A8DS27); experiment: Inhibition of recombinant Escherichia coli KPC-2 using nitrocefin as substrate preincubated for 10 mins followed by substrate addition and measured every 10 secs for 10 mins by spectrophotometric analysis
Chain of Class A carbapenemase KPC-2 (A8DS27 whole entry): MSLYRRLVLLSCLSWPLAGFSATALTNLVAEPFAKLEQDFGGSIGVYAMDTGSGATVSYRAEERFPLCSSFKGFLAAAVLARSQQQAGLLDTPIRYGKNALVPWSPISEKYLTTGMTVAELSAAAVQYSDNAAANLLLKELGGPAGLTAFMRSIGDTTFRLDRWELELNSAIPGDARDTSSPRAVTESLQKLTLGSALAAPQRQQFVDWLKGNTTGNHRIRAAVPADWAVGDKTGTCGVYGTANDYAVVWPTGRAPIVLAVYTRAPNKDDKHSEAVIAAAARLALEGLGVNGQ

[33] = Oral bioavailability in rat at 300 to 1000 mg/kg in fasted condition by HPLC/MS analysis; type: ADME, organism-based; conditions: in vivo
[34] = AUC in rat at 100 mg/kg, iv administered as infusion for 0.5 hrs by HPLC/MS analysis; type: ADME, organism-based; conditions: in vivo
Enterobacteriaceae [35] = experiment: Potentiation of meropenem-induced antibacterial activity against carbapenem-resistant Enterobacteriaceae assessed as meropenem MIC90 at 8 ug/ml by broth microdilution method (reference value: 16 ug/ml); type: functional

Question: What does the source list for `O=C(O)c1c(F)ccc2c1OB(O)[C@@H]1C[C@H]21` [XERUBORBACTAM]?
Answer: bioavailability [1]: 42.6%; MIC50 (Enterobacteriaceae [2]): < 0.06 µg/mL; MEC (Klebsiella pneumoniae [3]): 2.5 µg/mL; AUC at 0.5 h [4]: 608 µg·h/mL; Activity (Klebsiella pneumoniae [5]): -0.03 log10CFU; pIC50 [6]: 3.37; MEC (Klebsiella pneumoniae [7]): 0.16 µg/mL; Activity (Klebsiella pneumoniae [8]): -1.66 log10CFU; MIC90 (Enterobacteriaceae [9]): 1 µg/mL; pIC50 (Chymase): < 3.00; MIC90 (Klebsiella pneumoniae [10]): 0.5 µg/mL; half-life [11]: 4.4 h; AUC at 0.5 h [12]: 35.2 µg·h/mL; MEC (Escherichia coli [13]): 0.16 µg/mL; logD [14]: -2.85; MIC90 (Enterobacterales): 0.125 µg/mL; pIC50 [15]: < 3.00; Activity [16]: Non-Toxic; Cmax [17]: 90.4 µg/mL; MEC [18]: 1.25 µg/mL; bioavailability [19]: 24.3%; MEC (Escherichia coli [20]): 0.3 µg/mL; half-life [21]: 3.23 h; MIC50 (Pseudomonas aeruginosa [22]): 0.25 µg/mL; MEC (Pseudomonas aeruginosa [23]): 5 µg/mL; MIC90 (Acinetobacter baumannii): 4 µg/mL; bioavailability [24]: 53.2%; bioavailability [25]: 43%; MIC90 (Enterobacteriaceae [26]): 0.125 µg/mL; AUC [27]: 177 µg·h/mL; clearance [28]: 4.83 mL/min/kg; pIC50 (Interstitial collagenase): < 3.00; fraction unbound [29]: 0.04; Activity (Klebsiella pneumoniae [30]): -2.26 log10CFU; Activity [31]: Toxic; pKi [32]: 8.72; bioavailability [33]: 24 to 28%; AUC at 0.5 h [34]: 221 µg·h/mL; MIC90 (Enterobacteriaceae [35]): 0.25 µg/mL
